One assay concerns the target KRAS WT-cRAF (Homo sapiens, UniProt P01116+P62937). Put plainly: Assay for binding of KRAS to cRAF (HTRF, with Cyclophilin A), KRAS WT.
In the next assay the target is KRAS G12V-cRAF (Homo sapiens, UniProt P01116+P62937, G12V). The assay is described as follows: Assay for binding of KRAS to cRAF (HTRF, with Cyclophilin A), KRAS G12V.
A further assay concerns NCI-H441 cells. Put plainly: 3D cell proliferation assay (CellTiter Glo-3D), NCI-H441. Type of assay: cell-based, human. Conditions: NCI-H441 cells (KRAS G12V), 2% FBS, 5 days, read-out: H441 AP IC50. In outline:
(§1)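 Cells seeded at 800 per well (AsPC-1, NCI-H441) in 2% FBS medium and incubated overnight at 37 °C, 5% CO2. Compounds added next day from 10× stock, then 5 days' further culture. Viability read by CellTiter-Glo luminescence; IC50 from four-parameter fit of inhibition versus log concentration.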

A further assay deals with AsPC-1 cells. The assay is described as follows: 3D cell proliferation assay (CellTiter Glo-3D), AsPC-1. Format: cell-based, human. Conditions: AsPC-1 cells (KRAS G12D), 3D, 2% FBS, 5 days, read-out: AsPC-1 AP IC50. In short, it runs like this:
as §1

Another assay concerns H441 p-ERK. The assay is described as follows: Cell p-ERK assay (HTRF), NCI-H441 cells. Type of assay: cell-based, human. To be noted: NCI-H441 cells (KRAS G12V), 3 h incubation. In outline:
(§2)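 AsPC-1 (10000/well) or NCI-H441 (20000/well) cells were seeded overnight and then exposed to compound for 3 h at 37 °C. Lysates were probed for ERK phospho-T202/Y204 by HTRF with a 4-hour antibody incubation. IC50 values came from four-parameter fits of inhibition against log concentration.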

Another assay deals with AsPC-1 p-ERK. The assay is described as follows: Cell p-ERK assay (HTRF), AsPC-1 cells. Conditions: AsPC-1 cells (KRAS G12D), 3 h incubation, read-out: AsPC-1 p-ERK IC50. Format: cell-based, human. In short, it runs like this:
as §2

Setting [1] is: read-out: KRAS WT-cRAF binding assay, GPPNP-KRAS WT, IC50 values.
The mark [2] stands for this setting: read-out: KRAS G12V-cRAF binding assay, GPPNP-KRAS G12V, IC50 values.
Setting [3] is: KRAS WT-cRAF binding assay(nM), GPPNP-KRAS WT, IC50 values.
[4] abbreviates: KRAS G12V-cRAF binding assay(nM), GPPNP-KRAS G12V, IC50 values.

Read-outs that look alike come from different tables or passages of the source.

Sequence of KRAS WT-cRAF (P01116 1-188 isoform P01116-2): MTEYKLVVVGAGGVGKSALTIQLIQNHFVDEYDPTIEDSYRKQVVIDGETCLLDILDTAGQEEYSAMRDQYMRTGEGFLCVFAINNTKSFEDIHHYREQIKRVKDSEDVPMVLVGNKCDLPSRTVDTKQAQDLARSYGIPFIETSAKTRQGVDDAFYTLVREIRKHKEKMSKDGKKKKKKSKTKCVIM
Sequence of KRAS WT-cRAF (P62937 whole entry): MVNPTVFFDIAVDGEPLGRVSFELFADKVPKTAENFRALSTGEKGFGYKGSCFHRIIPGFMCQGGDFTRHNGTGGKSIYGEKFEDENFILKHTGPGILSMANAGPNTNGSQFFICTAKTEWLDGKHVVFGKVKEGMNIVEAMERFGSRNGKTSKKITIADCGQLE
Sequence of KRAS G12V-cRAF (P01116 1-188 isoform P01116-2 G12V): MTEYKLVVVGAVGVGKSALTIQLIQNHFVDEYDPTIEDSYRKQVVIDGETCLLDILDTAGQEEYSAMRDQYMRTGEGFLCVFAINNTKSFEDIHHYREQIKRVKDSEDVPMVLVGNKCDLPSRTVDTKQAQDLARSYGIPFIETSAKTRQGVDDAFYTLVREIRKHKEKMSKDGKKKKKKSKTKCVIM
Sequence of KRAS G12V-cRAF (P62937 whole entry): as the sequence (P62937 whole entry) above
Protocol for KRAS G12V-cRAF: (§3) The plate was centrifuged at 1000 rpm for 1 min and then incubated in the thermostatic incubator at 20 °C for 30 min. […] The plate was centrifuged at 1000 rpm for 1 min and then incubated in the thermostatic incubator at 20 °C for 60 min. […] The working solution was added to the aforementioned assay plate at 5 µL/well. The plate was centrifuged at 1000 rpm for 1 min and then incubated in the thermostatic incubator at 20 °C for 60 min.
Protocol for KRAS WT-cRAF: as §3

For the compound `CCn1c(-c2cc(C#CCN3CCC(C#N)(CO)CC3)cnc2[C@H](C)OC)c2c3cc(ccc31)-c1csc(n1)C[C@H](NC(=O)[C@H]1[C@@H]3COC[C@@H]31)C(=O)N1CCC[C@H](N1)C(=O)OCC(C)(C)C2` (atropisomer, axis not shown) [Compound Z39], the IC50 at KRAS WT-cRAF (setting [1]) is 22.1 nM; at KRAS G12V-cRAF (setting [2]) it was 9.1 nM.
On to `CCn1c(-c2cc(C#CCN3CCS(=O)(=O)CC3)cnc2C(C)OC)c2c3cc(ccc31)-c1csc(n1)CC(NC(=O)C1C(C)C1C(=O)NCCO)C(=O)N1CCCC(N1)C(=O)OCC(C)(C)C2` (atropisomer, axis not shown; (Ra)) [Compound Z13-1, (1R,2R,3S)-N^1-((6^3S,4S,Z)-(Ra)-1^2-(5-(3-(1,1-dioxidothiomorpholino)prop-1-yn-1-yl)-2-((S)-1-methoxyethyl)pyridin-3-yl)-1^1-ethyl-10,10-dimethyl-5,7-dioxo-6^1,6^2,6^3,6^4,6^5,6^6-hexahydro-1^1H-8-oxa-2(4,2)-thiazola-1(5,3)-indola-6(1,3)-pyridazinacycloundecaphane-4-yl)-N^2-(2-hydroxyethyl)-3-methylcyclopropane-1,2-dicarboxamide], for which the IC50 in the assay with NCI-H441 cells (Homo sapiens, 120 h) turned out to be 3.36 nM; in the assay with AsPC-1 cells (Homo sapiens, ASPC1, 120 h), 3.7 nM; at KRAS WT-cRAF (setting [3]), 21.8 nM; at KRAS G12V-cRAF (setting [4]), 5.2 nM.
With `CCn1c(-c2cc(C#CCN3CCS(=O)(=O)CC3)cnc2C(C)OC)c2c3cc(ccc31)-c1csc(n1)CC(NC(=O)C1C(C)C1C(=O)NCCO)C(=O)N1CCCC(N1)C(=O)OCC(C)(C)C2` (atropisomer, axis not shown; (Ra)) [Compound Z13-2, (1S,2S,3R)-N^1-((6^3S,4S,Z)-(Ra)-1^2-(5-(3-(1,1-dioxidothiomorpholino)prop-1-yn-1-yl)-2-((S)-1-methoxyethyl)pyridin-3-yl)-1^1-ethyl-10,10-dimethyl-5,7-dioxo-6^1,6^2,6^3,6^4,6^5,6^6-hexahydro-1^1H-8-oxa-2(4,2)-thiazola-1(5,3)-indola-6(1,3)-pyridazinacycloundecaphane-4-yl)-N^2-(2-hydroxyethyl)-3-methylcyclopropane-1,2-dicarboxamide], the IC50 at KRAS WT-cRAF (setting [3]) was 22.6 nM; at KRAS G12V-cRAF (setting [4]), 5.1 nM.
In the case of `CCn1c(-c2cc(C#CCN3CCS(=O)(=O)CC3)cnc2C(C)OC)c2c3cc(ccc31)-c1cc(N)cc(c1)CC(NC(=O)C1C(C)C1C)C(=O)N1CCCC(N1)C(=O)OCC(C)(C)C2` (atropisomer, axis not shown; (Ra)) [Compound Z22, (1r,2R,3S)-N-((6^3S,4S)-2^5-amino-(Ra)-1^2-(5-(3-(1,1-dioxidothiomorpholino)prop-1-yn-1-yl)-2-((S)-1-methoxyethyl)pyridin-3-yl)-1^1-ethyl-10,10-dimethyl-5,7-dioxo-6^1,6^2,6^3,6^4,6^5,6^6-hexahydro-1^1H-8-oxa-1(5,3)-indola-6(1,3)-pyridazina-2(1,3)-benzenacycloundecaphane-4-yl)-2,3-dimethylcyclopropane-1-carboxamide], the IC50 amounted to 1.09 nM in the assay on H441 p-ERK (Homo sapiens); 1.54 nM in the assay on AsPC-1 p-ERK (Homo sapiens, ASPC1); 2.31 nM with NCI-H441 cells (Homo sapiens, 120 h); 8.37 nM in the assay with AsPC-1 cells (Homo sapiens, ASPC1, 120 h); 47.5 nM at KRAS WT-cRAF (setting [3]); 18.6 nM on KRAS G12V-cRAF (setting [4]).
Consider `COCCn1c(-c2cc(C#CCN3CCN(C(=O)CO)CC3)cnc2C(C)OC)c2c3cc(ccc31)-c1csc(n1)CC(NC(=O)C1C3COCC31)C(=O)N1CCCC(N1)C(=O)OCC(C)(C)C2` (atropisomer, axis not shown; (Ra)) [Compound Z31-1, (1R,5S,6r)-N-((6^3S,4S,Z)-(Ra)-1^2-(5-(3-(4-(2-hydroxyacetyl)piperazin-1-yl)prop-1-yn-1-yl)-2-((S)-1-methoxyethyl)pyridin-3-yl)-1^1-(methoxyethyl)-10,10-dimethyl-5,7-dioxo-6^1,6^2,6^3,6^4,6^5,6^6-hexahydro-1^1H-8-oxa-2(4,2)-thiazola-1(5,3)-indola-6(1,3)-pyridazinacycloundecaphane-4-yl)-3-oxabicyclo[3.1.0]hexane-6-carboxamide], for which the IC50 with H441 p-ERK (Homo sapiens) was found to be 0.92 nM; in the assay with AsPC-1 p-ERK (Homo sapiens, ASPC1), 2.65 nM; with NCI-H441 cells (Homo sapiens, 120 h) it was 1.07 nM; in the assay on AsPC-1 cells (Homo sapiens, ASPC1, 120 h) it was 2.09 nM; on KRAS WT-cRAF (setting [3]) it was 75 nM; on KRAS G12V-cRAF (setting [4]), 14.7 nM.
For the compound `CCn1c(-c2cc(C#CCN3CCC(C#N)(CN)CC3)c[n+]([O-])c2[C@H](C)OC)c2c3cc(ccc31)-c1csc(n1)C[C@H](NC(=O)[C@H]1[C@H](C)[C@@H]1C)C(=O)N1CCC[C@H](N1)C(=O)OCC(C)(C)C2` (atropisomer, axis not shown; (Ra)) [Compound Z57, 5-(3-(4-(aminomethyl)-4-cyanopiperidin-1-yl)prop-1-yn-1-yl)-(Ra)-3-((6^3S,4S,Z)-4-((1r,2R,3S)-2,3-dimethylcyclopropane-1-carboxamido)-1^1-ethyl-10,10-dimethyl-5,7-dioxo-6^1,6^2,6^3,6^4,6^5,6^6-hexahydro-1^1H-8-oxa-2(4,2)-thiazola-1(5,3)-indola-6(1,3)-pyridazinacycloundecaphane-1^2-yl)-2-((S)-1-methoxyethyl)pyridine 1-oxide], the IC50 is 1.47 nM with H441 p-ERK (Homo sapiens); 0.81 nM with AsPC-1 p-ERK (Homo sapiens, ASPC1); 1.34 nM in the assay on NCI-H441 cells (Homo sapiens, 120 h); 0.47 nM in the assay on AsPC-1 cells (Homo sapiens, ASPC1, 120 h); 38.8 nM at KRAS WT-cRAF (setting [1]); 6.3 nM at KRAS G12V-cRAF (setting [2]).
`CCn1c(-c2cc(C#CCN3CCC(C#N)CC3)cnc2C(C)OC)c2c3cc(ccc31)-c1coc(n1)CC(NC(=O)C1C(C)C1C)C(=O)N1CCCC(N1)C(=O)OCC(C)(C)C2` (atropisomer, axis not shown; (Ra)) [Compound Z155, (1r,2R,3S)-N-((6^3S,4S,Z)-(Ra)^2-(5-(3-(4-cyanopiperidin-1-yl)prop-1-yn-1-yl)-2-((S)-1-methoxyethyl)pyridin-3-yl)-1^1-ethyl-10,10-dimethyl-5,7-dioxo-6^1,6^2,6^3,6^4,6^5,6^6-hexahydro-1^1H-8-oxa-2(4,2)-oxazola-1(5,3)-indola-6(1,3)-pyridazinacycloundecaphan-4-yl)-2,3-dimethylcyclopropanecarboxamide]: the IC50 worked out at 18.7 nM at KRAS WT-cRAF (setting [3]) and 8.29 nM on KRAS G12V-cRAF (setting [4]).
Regarding `CCn1c(-c2cc(C#CCN3CCC(C#N)CC3)cnc2C(C)OC)c2c3cc(ccc31)-c1coc(n1)CC(NC(=O)C1C3COCC31)C(=O)N1CCCC(N1)C(=O)OCC(C)(C)C2` (atropisomer, axis not shown; (Ra)) [Compound Z168, (1R,5S,6r)-N-((6^3S,4S,Z)-(Ra)-1^2-(5-(3-(4-cyanopiperidin-1-yl)prop-1-yn-1-yl)-2-((S)-1-methoxyethyl)-pyridin-3-yl)-1^1-ethyl-10,10-dimethyl-5,7-dioxo-6^1,6^2,6^3,6^4,6^5,6^6-hexahydro-1^1H-8-oxa-2(4,2)-oxazola-1(5,3)-indola-6(1,3)-pyridazinacycloundecaphane-4-yl)-3-oxabicyclo[3.1.0]hexane-6-carboxamide], the IC50 in the assay with H441 p-ERK (Homo sapiens) came out at 0.09 nM; in the assay on AsPC-1 p-ERK (Homo sapiens, ASPC1) it was 0.03 nM; at KRAS WT-cRAF (setting [3]) it was 16.4 nM; on KRAS G12V-cRAF (setting [4]) it was 7.75 nM.
As to `CCn1c(-c2cc(C#CCN3CCC(C#N)CC3)cnc2[C@H](C)NC)c2c3cc(ccc31)-c1csc(n1)C[C@H](NC(=O)[C@H]1[C@@H]3COC[C@@H]31)C(=O)N1CCC[C@H](N1)C(=O)OCC(C)(C)C2` (atropisomer, axis not shown; (Ra)) [Compound Z169-1, (1R,5S,6r)-N-((6^3S,4S,Z)-(Ra)-1^2-(5-(3-(4-cyanopiperidin-1-yl)prop-1-yn-1-yl)-2-((S)-1-(methylamino)ethyl)pyridin-3-yl)-1^1-ethyl-10,10-dimethyl-5,7-dioxo-6^1,6^2,6^3,6^4,6^5,6^6-hexahydro-1^1H-8-oxa-2(4,2)-thiazola-1(5,3)-indola-6(1,3)-pyridazinacycloundecaphane-4-yl)-3-oxabicyclo[3.1.0]hexane-6-carboxamide], the values for the IC50 at KRAS WT-cRAF (setting [1]) and at KRAS G12V-cRAF (setting [2]) were 58.2 nM and 17.5 nM, respectively.
Turning to “(6^3S,4S,Z)-(Sa)-1^2-(5-(3-(1,4-oxazepan-4-yl)prop-1-yn-1-yl)-2-((S)-1-methoxyethyl)pyridin-3-yl)-1^1-ethyl-10,10-dimethyl-4-((5-ethyl-5-methyl-4,5-dihydroisoxazol-3-yl)amino)-6^1,6^2,6^3,6^4,6^5,6^6-hexahydro-1^1H-8-oxa-2(4,2)-thiazola-1(5,3)-indola-6(1,3)-pyridazinacycloundecaphane-5,7-dione [Compound Z173-2]”, the IC50 with H441 p-ERK is 0.81 nM; with AsPC-1 p-ERK, 0.86 nM; with NCI-H441 cells it was 1.82 nM; in the assay on AsPC-1 cells it was 1.61 nM.

The record behind these values is patent EP4775582A1, “MACROCYCLIC COMPOUND AND ANTIBODY-DRUG CONJUGATE THEREOF” (Genfleet Therapeutics (Shanghai) Inc., priority 2023, dated 2025).
